From patent US20160212997A1, “AGRICULTURAL CHEMICALS” (REDAG CROP PROTECTION LTD, priority 2013, published 2016) come the findings set out here.

Like-named read-outs stand apart in the source and are kept apart here.

Common to all, as to type: in vivo
In one assay the test system is aphids, Myzus persicae. In words: Potter tower spray on aphids, knockdown and mortality. The note with it: Aphids. The source says: (§1) The compounds were screened for insecticidal efficacy against aphids, Myzus persicae, Cabbage moth, Mamestra brassicae, diamond black moths, Plutella xylostella, red spider mites, Tetranychus urticae, whitefly, Trialeurodes vaporariorum, in terms of knockdown and mortality.
(§2) Myzus persicae, Cabbage moth, Mamestra brassicae, diamond back moths, Plutella xylostella, red spider mites, Tetranychus urticae, whitefly, Trialeurodes vaporariorum, were obtained from specified laboratory cultures. Mixed sex and age aphids and mites, moth larvae and whitefly scale infested leaves were used in the experiments. Environmental conditions were closely monitored and recorded and were within the optimal range of the target species.
(§3) The compounds were screened at a range of five concentrations, diluted in DMSO. Some of the compounds were screened against aphids, whitefly and red spider mites and other compounds were screened against cabbage moth, and diamond black moths. A carrier only and an untreated control will also be conducted. Treatments were applied directly onto the insects within Petri dishes, using a potter tower.
(§4) Twenty mites and ten aphids, scales and moth larvae were placed within a Petri dish, lined with a suitable leaf disc on a damp cotton wool pad. Scales were already on leaves. The Petri dishes were then sprayed using a potter tower. The number of knocked down and anthropods were assessed at 24 and 48 hours post treatment. Five replicates were be performed for each treatment, for each species.
(§5) For Tables 2, 4, 5 and 6, the compounds were diluted in DMSO containing 1% v/v Tween 20™. For Tables 2, 4, 5 and 6, the caterpillars were a mixture of Mamestra brassicae and Lacanobia oleracea.

Assay [1] deals with red spider mites, Tetranychus urticae. In words: Potter tower spray on red spider mites, knockdown and mortality. As to conditions: Spider mites.
Description: as §1, §2, §3, §4

Assay [2] has as its system caterpillars, a mixture of Mamestra brassicae and Lacanobia oleracea. In words: Potter tower spray on caterpillars, knockdown and mortality. The note with it: for pest or weed control at 0.003125 % strength / pest or weed control at 0.0125 % strength / pest or weed control at 0.025 % strength / Average of % corrected affected: Caterpillars; for pest or weed control at 0.003125 % strength / pest or weed control at 0.0125 % strength / pest or weed control at 0.025 % strength: read-out: Average of % corrected affected.
Description: as §2, §3, §4, §5

Where [3] appears, read: 0.0125 % w/v, 48 hours post application.
[4] abbreviates: 0.025 % w/v, 24 hours post application.
[5] abbreviates: 0.025 % w/v, 48 hours post application.

Turning to `O=C1C=C(N(Cc2ccc(Cl)nc2)CC(F)F)CO1` [Compound 1, 3-[(6-Chloro-3-pyridyl)methyl-(2,2-difluoroethyl)amino]-2H-furan-5-one, reference compound], the percentage control result in the assay on aphids, Myzus persicae (25 g/ha, 24 h) was “E (A percentage control of from 1 to 19 is indicated by the letter E)”; in the assay with aphids, Myzus persicae (25 g/ha, 48 h), “C (A percentage control of from 40 to 59 is indicated by the letter C)”; with aphids, Myzus persicae (50 g/ha, 24 h) it was “D (A percentage control of from 20 to 39 is indicated by the letter D)”; in the assay with aphids, Myzus persicae (50 g/ha, 48 h), “A (A percentage control of from 80 to 100 is indicated by the letter A)”; in the assay on aphids, Myzus persicae (100 g/ha, 24 h) it was “D (A percentage control of from 20 to 39 is indicated by the letter D)”; with aphids, Myzus persicae (100 g/ha, 48 h), “A (A percentage control of from 80 to 100 is indicated by the letter A)”. Moreover, the percentage control entry with aphids, Myzus persicae (200 g/ha, 24 h) is “C (A percentage control of from 40 to 59 is indicated by the letter C)”; in the assay on aphids, Myzus persicae (200 g/ha, 48 h), “A (A percentage control of from 80 to 100 is indicated by the letter A)”; in the assay with aphids, Myzus persicae (400 g/ha, 24 h), “B (A percentage control of from 60 to 79 is indicated by the letter B)”; in the assay on aphids, Myzus persicae (400 g/ha, 48 h) it was “A (A percentage control of from 80 to 100 is indicated by the letter A)”; in assay [1] (25 g/ha, 24 h), “D (A percentage control of from 20 to 39 is indicated by the letter D)”; in assay [1] (25 g/ha, 48 h) it was “D (A percentage control of from 20 to 39 is indicated by the letter D)”. The percentage control result in assay [1] (50 g/ha, 24 h) was “D (A percentage control of from 20 to 39 is indicated by the letter D)”; in assay [1] (50 g/ha, 48 h) it was “D (A percentage control of from 20 to 39 is indicated by the letter D)”; in assay [1] (100 g/ha, 24 h), “E (A percentage control of from 1 to 19 is indicated by the letter E)”; in assay [1] (100 g/ha, 48 h), “D (A percentage control of from 20 to 39 is indicated by the letter D)”; in assay [1] (200 g/ha, 24 h), “D (A percentage control of from 20 to 39 is indicated by the letter D)”; in assay [1] (200 g/ha, 48 h), “D (A percentage control of from 20 to 39 is indicated by the letter D)”. For the same molecule, the percentage control result in assay [1] (400 g/ha, 24 h) is on record as “D (A percentage control of from 20 to 39 is indicated by the letter D)”; in assay [1] (400 g/ha, 48 h), “C (A percentage control of from 40 to 59 is indicated by the letter C)”.
For `O=C(Nc1ccc(-c2cncnc2)oc1=O)C1CC1` [Compound 26, N-[2-Oxo-6-(5-pyrimidyl)pyran-3-yl]cyclopropanecarboxamide], the “Average of % corrected affected” value in the assay on aphids, Myzus persicae (0.00625 % w/v, 24 hours post application) is “E (A percentage control of from 1 to 19 is indicated by the letter E)”; in the assay with aphids, Myzus persicae (setting [3]), “E (A percentage control of from 1 to 19 is indicated by the letter E)”; in the assay on aphids, Myzus persicae (setting [4]) it was “E (A percentage control of from 1 to 19 is indicated by the letter E)”; in the assay on aphids, Myzus persicae (setting [5]), “E (A percentage control of from 1 to 19 is indicated by the letter E)”; with aphids, Myzus persicae (0.05 % w/v, 24 hours post application), “E (A percentage control of from 1 to 19 is indicated by the letter E)”; with aphids, Myzus persicae (0.05 % w/v, 48 hours post application) it was “E (A percentage control of from 1 to 19 is indicated by the letter E)”. In addition, the “Average of % corrected affected” value in assay [2] (0.003125 % w/v, 24 hours post application) is recorded as “E (A percentage control of from 1 to 19 is indicated by the letter E)”; in assay [2] (0.003125 % w/v, 48 hours post application) it was “E (A percentage control of from 1 to 19 is indicated by the letter E)”; in assay [2] (0.0125 % w/v, 24 hours post application), “E (A percentage control of from 1 to 19 is indicated by the letter E)”; in assay [2] (setting [3]) it was “E (A percentage control of from 1 to 19 is indicated by the letter E)”; in assay [2] (setting [4]), “E (A percentage control of from 1 to 19 is indicated by the letter E)”; in assay [2] (setting [5]), “E (A percentage control of from 1 to 19 is indicated by the letter E)”. Also, the pest or weed control at 0.00625 % strength in the assay with aphids, Myzus persicae (Myzus persicae, 24 h, 0.00625 % w/v, 24 hours post application, read-out: Average of % corrected affected) is 1 to 19%. Further, the pest or weed control at 0.025 % strength fell in the range of 1 to 19% with aphids, Myzus persicae (Myzus persicae, 24 h, 0.025 % w/v, 24 hours post application, read-out: Average of % corrected affected); 1 to 19% in assay [2] (24 h, 0.025 % w/v, 24 hours post application); 1 to 19% in assay [2] (48 h, 0.025 % w/v, 48 hours post application). In addition, the pest or weed control at 0.05 % strength lay within 1 to 19% with aphids, Myzus persicae (Myzus persicae, 24 h, 0.05 % w/v, 24 hours post application, read-out: Average of % corrected affected) and 1 to 19% in the assay on aphids, Myzus persicae (Myzus persicae, 48 h, 0.05 % w/v, 48 hours post application, read-out: Average of % corrected affected). Moreover, the pest or weed control at 0.0125 % strength with aphids, Myzus persicae (Myzus persicae, 48 h, 0.0125 % w/v, 48 hours post application, read-out: Average of % corrected affected) was in the range of 1 to 19%; in assay [2] (24 h, 0.0125 % w/v, 24 hours post application), 1 to 19%; in assay [2] (48 h, 0.0125 % w/v, 48 hours post application), 1 to 19%. The “control against caterpillars compared with reference compound 25” value in assay [2] (0.05%) is “greater control”. Moreover, the pest or weed control at 0.003125 % strength in assay [2] (24 h, 0.003125 % w/v, 24 hours post application) was in the range of 1 to 19%; in assay [2] (48 h, 0.003125 % w/v, 48 hours post application), 1 to 19%.
